Earlier results in US11692003B2, “Mithramycin derivatives having increased selectivity and anti-cancer activity” (University of Kentucky Research Foundation, priority 2018, dated 2023).

Tested on: several cancer cell lines

SMILES	activity against several cancer cell lines compared to the parent MTM
CO[C@H](C(=O)C(C)=O)[C@@H]1Cc2cc3cc(OC4C[C@@H](OC5C[C@@H](O)[C@H](O)C(C)O5)[C@H](O)C(C)O4)c(C)c(O)c3c(O)c2C(=O)[C@H]1OC1C[C@@H](OC2C[C@@H](OC3C[C@](C)(O)[C@H](O)C(C)O3)[C@@H](O)C(C)O2)[C@H](O)C(C)O1 (some centres unmarked) [MTM SDK, mithramycin SDK]	increased activity
CO[C@H](C(O)C(C)=O)[C@@H]1Cc2cc3cc(OC4C[C@@H](OC5C[C@@H](O)[C@H](O)C(C)O5)[C@H](O)C(C)O4)c(C)c(O)c3c(O)c2C(=O)[C@H]1OC1C[C@@H](OC2C[C@@H](OC3C[C@](C)(O)[C@H](O)C(C)O3)[C@@H](O)C(C)O2)[C@H](O)C(C)O1 (some centres unmarked) [MTM SK, Mithramycin SK]	increased activity
